# Laboratory results published in publication PMC12380226, “Novel strategies for inhibiting SufA protease: the role of ester substituents and biological properties” (Future Medicinal Chemistry, 2025).
# Read-outs that look alike come from different tables or passages of the source.
# How the values were obtained:
# SufA protease [1] = assay: SufA inhibition studies (fluorogenic substrate ABZ-Ile-Ser-Lys-ANB, progress curve method); type: biochemical, Finegoldia magna
# Protocol: The assays were performed at 37°C with an excitation wavelength of 320 nm for ABZ and an emission wavelength of 410 nm using 96-well microtiter plates (COSTAR, Corning Inc., Gdańsk, Poland) in 0.1 M Tris-HCl (pH 8.0) with 0.01 M KCl. The concentrations of substrate (ABZ-Ile-Ser-Lys-ANB) and SufA protease were 25 µM and 4 µg/mL, respectively. The SufA protease was incubated for 10 min with the tested compound, dissolved in DMSO (inhibitor final concentration ranging from 0 to 300 µM), and then the measurement was taken for 10 min. Each assay was performed in at least duplicate. The inhibitory activity was measured, and the percentage of inhibition was calculated with the equation: % inhibition = RFUtest / RFU− ∗ 100%,
# where RFU represents the relative fluorescence units, test refers to the signal from reactions containing an inhibitor, and (-) represents the signal from the control reactions (without an inhibitor). The inhibitory effects of the synthesized compounds were evaluated by means of the progress curve method.
# where [P] is the product concentration at time t, vi is the initial velocity, and vs is the steady state velocity. […]
# SufA protease [2] = assay: Inhibition of SufA-mediated degradation of human fibrinogen (SDS-PAGE); type: biochemical, Finegoldia magna; conditions: SufA 25 µg/mL, inhibitor 1.3 mM, pre-incubation 60 min 37°C, SDS-PAGE reducing
# Protocol: (§1) The SufA protease was incubated with the specific SufA inhibitor for 60 min at 37°C, maintaining a constant DMSO concentration of 1%. The reference sample contained an appropriate amount of DMSO instead of the inhibitor. After incubation, fibrinogen and LL-37 proteins were added to each sample of enzyme (25 µg/mL) or enzyme with inhibitor (25 µg/mL, 1.3 mM). Samples were analyzed by PAGE using the standard Laemmli protocol for fibrinogen and the procedure developed by Judd for the LL-37 peptide. Raw gel results of the inhibition of SufA-induced degradation of human fibrinogen and LL-37 by tested inhibitors after SDS-PAGE electrophoresis analysis are presented in Supplementary Biochemical Part S1-S2 and Figures S9–S11.
# S. aureus PCM 2602 = assay: Antibacterial activity, growth reduction (OD600, 24 h); type: cell-based; conditions: Staphylococcus aureus, PCM2602, MH broth
# Protocol: (§2) The antibacterial properties of the inhibitors were assessed in Mueller-Hinton (MH) broth at 37°C for E. coli, S. marcescens, and S. aureus. For F. magna, the antibacterial properties of the inhibitors were tested in Todd Hewitt broth at 37°C under anaerobic conditions. An overnight culture of the tested bacteria was diluted 200-fold in fresh medium and incubated at 37°C until the OD600 reached 0.3. Subsequently, 100 µL of the inhibitor and antibiotic control (at concentrations ranging from 0 to 250 µg/mL) were added to 900 µL of bacterial culture, which had been previously diluted to an OD600 of less than 0.01. The resulting samples were incubated for 24 h at 37°C with shaking at 100 rpm. Then, 200 µL of each sample was transferred to a well plate, and the absorbance was measured at a wavelength of 600 nm using a microplate reader. To determine the antibacterial properties of the inhibitors, the data were normalized against a control culture (without inhibitor or antibiotics). The IC50 values were calculated using GraphPad Prism through nonlinear regression, employing the following equation model: Y=YBottom+(YTop−YBottom)/(1+10^∧((LogIC50−X)∗(−1.0))),
# (§3) where YBottom and YTop represent the plateaued units of the Y-axis. The IC50 value represents the concentration that produces a half-maximal response between YBottom and YTop, thus measuring the potency of a compound in inhibiting bacterial viability and indicating a 50% reduction in bacterial growth. The effect of gentamicin on bacterial growth reduction, including its IC50 values, can be found in the Supplementary Material (Supplementary Microbiology Part S1, Figures S12)
# E. coli PCM 2561 = assay: as above; type: cell-based; conditions: Escherichia coli, PCM2561, MH broth
# Protocol: as §2, §3
# F. magna PCM 2822 = assay: as above; type: cell-based; conditions: Finegoldia magna, read-out: IC50 growth reduction
# Protocol: as §2, §3
# S. marcescens PCM 549 = assay: as above; type: cell-based; conditions: Serratia marcescens, read-out: IC50 growth reduction
# Protocol: as §2, §3
# E. coli = conditions: read-out: literature IC50; cited from earlier work
# S. aureus = conditions: read-out: literature IC50; cited from earlier work
# SufA protease [3] = assay: Inhibition of SufA-mediated degradation of human antimicrobial peptide LL-37 (PAGE); type: biochemical, Finegoldia magna; conditions: SufA 25 µg/mL, inhibitor 1.3 mM, pre-incubation 60 min 37°C
# Protocol: as §1
# ctDNA = assay: DNA intercalation by circular dichroism spectroscopy; type: binding, ox; conditions: inhibitor 100 µM, ctDNA 50 µM, 1% DMSO
# Protocol: The measurement parameters were set as follows: the wavelength range was set from 220 nm to 320 nm, step – at every 0.2 nm, and 4 accumulations. Measurements were performed in a Justcode M cuvette with an optical path of 1 mm. 200 μL of the analyzed solution was introduced into the cuvette each time. The apparatus was zeroed using phosphate buffer with the following composition: 150 mM NaCl, 20 mM PB, 1 mM EDTA. Afterward, the samples (maintaining a constant DMSO concentration of 1%) of ctDNA (50 µM), inhibitor (100 µM), and inhibitor (100 µM) with ctDNA (50 µM) were prepared. First, a sample of the ctDNA solution was measured with a CD spectrometer to check the graph for pure DNA. Then, a sample of the inhibitor solution was measured, against which the apparatus was blanked because the inhibitor molecule itself could produce a CD effect, potentially falsifying the results. At the end, a sample of the actual solution containing the inhibitor and ctDNA was measured.
# SufA [4] = tested on: SufA; parameters: method as in PMID 24859537; conditions: cited from earlier work
# BALB/3T3 = tested on: BALB/3T3; parameters: method as in PMID 24859537; conditions: BALB/3T3 cell line; cited from earlier work
# HLMEC = tested on: HLMEC; parameters: method as in PMID 24859537; conditions: HLMEC cell line; cited from earlier work
# SufA [5] = tested on: SufA; parameters: method as in PMID 24859537; conditions: cited from earlier work; remark: listed apart in the source
# SplA protease = tested on: SplA protease; parameters: method as in PMID 24375505; conditions: cited from earlier work
compound,measurement,setting,value
"COC(=O)c1ccc(OP(=O)(Oc2ccc(C(=O)OC)cc2)C(NC(=O)OCc2ccccc2)c2ccc3cc(C(=N)N)ccc3c2)cc1 (stereo not drawn) [Compound 8c, Cbz-6-AmNphth^P(OC6H4-4-COOCH3)2]",% SufA inhibition,SufA protease [1]; cmpd. conc. 50 μM,< 50%
same,Inhibition of SufA-induced degradation of human fibrinogen,SufA protease [2],weaker inhibitory effect on fibrinogen degradation
same,IC50,S. aureus PCM 2602,> 150 µM
same,IC50,E. coli PCM 2561,60.9 µM
same,IC50,"F. magna PCM 2822; PCM2822, 24 h",6.98 µM
same,IC50,"S. marcescens PCM 549; PCM549, 24 h",< 0.01 µM
"CNC(C)C1CCC(N)C(OC2C(N)CC(N)C(OC3OCC(C)(O)C(NC)C3O)C2O)O1 (stereo not drawn) [gentamicin, reference compound]",IC50,"S. marcescens PCM 549; PCM549, MH broth, 24 h",0.251 µM
O=C(N[C@H](CO)[C@H](O)c1ccc([N+](=O)[O-])cc1)C(Cl)Cl [chloramphenicol],IC50,E. coli,373 µM
same,IC50,S. aureus,1.59 µM
"CSc1ccc(OP(=O)(Oc2ccc(SC)cc2)C(NC(=O)OCc2ccccc2)c2ccc3cc(C(=N)N)ccc3c2)cc1 (stereo not drawn) [Compound 8a, Cbz-6-AmNphth^P(OC6H4-4-SCH3)2]",k2/Ki,"SufA protease [1]; second-order rate constant, 37°C, pH 8.0",1500 M⁻¹ s⁻¹
same,Inhibition of SufA-induced degradation of LL-37,SufA protease [3],inhibition of LL-37 cleavage
same,Inhibition of SufA-induced degradation of human fibrinogen,SufA protease [2],completely prevented fibrinogen degradation
same,DNA intercalation (change of CD spectrum of ctDNA),ctDNA,does not induce DNA intercalation
same,IC50,S. aureus PCM 2602,2.65 µM
same,IC50,E. coli PCM 2561,28.2 µM
same,IC50,"F. magna PCM 2822; PCM2822, Todd Hewitt broth, anaerobic, 24 h",0.02 µM
same,IC50,"S. marcescens PCM 549; PCM549, 24 h",0.02 µM
N=C(N)c1ccc2cc(C(NC(=O)OCc3ccccc3)P(=O)(Oc3ccccc3)Oc3ccccc3)ccc2c1 (stereo not drawn) [Cbz-6-AmNpth^P(OC6H5)2],k2/Ki,SufA [4],"10,800 M^− 1 s^− 1"
same,Cytotoxicity,BALB/3T3,no significant cytotoxicity
same,Cytotoxicity,HLMEC,no significant cytotoxicity
same,Inhibition of degradation of fibrinogen,SufA [5],completely inhibited the degradation of fibrinogen
CC(C)CC(NC(=O)C1CCCN1C(=O)C(NC(=O)OCc1ccccc1)C(C)C)P(=O)(Oc1ccc(S(C)(=O)=O)cc1)Oc1ccc(S(C)(=O)=O)cc1 (stereo not drawn) [Cbz-Val-Pro-Leu^P(OC6H4-4-SOOCH3)2],k2/Ki,SplA protease,> 8000 M⁻¹ s⁻¹
CC1(C)S[C@@H]2[C@H](NC(=O)[C@H](N)c3ccccc3)C(=O)N2[C@H]1C(=O)O [ampicillin],IC50,E. coli,10.1 µM
same,IC50,S. aureus,0.18 µM
CC(C)C(NC(=O)OCc1ccccc1)C(=O)N1CCCC1C(=O)NC(Cc1ccccc1)P(=O)(Oc1ccc(S(C)(=O)=O)cc1)Oc1ccc(S(C)(=O)=O)cc1 (stereo not drawn) [Cbz-Val-Pro-Phe^P(OC6H4-4-SOOCH3)2],k2/Ki,SplA protease,> 8000 M⁻¹ s⁻¹
"COc1ccc(OP(=O)(Oc2ccc(OC)cc2)C(NC(=O)OCc2ccccc2)c2ccc3cc(C(=N)N)ccc3c2)cc1 (stereo not drawn) [Compound 8b, Cbz-6-AmNphth^P(OC6H4-4-OCH3)2]",Inhibition of SufA-induced degradation of human fibrinogen,SufA protease [2],weaker inhibitory effect on fibrinogen degradation
same,IC50,S. aureus PCM 2602,19.2 µM
same,IC50,E. coli PCM 2561,> 150 µM
same,IC50,"F. magna PCM 2822; PCM2822, 24 h",0.04 µM
same,IC50,"S. marcescens PCM 549; PCM549, 24 h",0.48 µM
